US20260109707A1, “HETEROBIFUNCTIONAL COMPOUNDS AND METHODS OF TREATING DISEASE” (Halda Therapeutics OpCo. Inc., priority 2022, published 2026)
Like-named read-outs stand apart in the source and are kept apart here.

Legend:
[1] = system: T-Rex 293 cell line SC3 cells having increased expression of androgen receptor protein due to exposure to doxycycline; experiment: Cellular growth inhibition assay, T-Rex 293 SC3 cells with doxycycline (CellTiter-Glo, 72 hours); format: cell-based; settings: T-Rex 293 SC3 cells with increased androgen receptor expression due to doxycycline (10 ng/mL)
Procedure, shortened: (§1)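 Doxycycline (10 ng/mL) was either included or omitted to toggle wild-type androgen receptor expression in SC3 cells, a T-Rex 293 clone, grown in stripped-serum, phenol red-free medium. After 72 hours with compound, viable cells were quantified by CellTiter-Glo 2.0.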

VCaP cells = experiment: Cellular growth inhibition assay for VCaP cells (CellTiter-Glo, 72 hours); format: cell-based, human
Procedure, shortened: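 Luminescent viability signal after 72 h of compound exposure gave GI50 values by four-parameter nonlinear regression. Compounds were added in 0.5% DMSO to cells plated 24 h earlier at 5000/well in DMEM containing 10% FBS.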

[2] = system: T-Rex 293 cell line SC3 cells lacking increased expression of androgen receptor protein; experiment: Cellular growth inhibition assay, T-Rex 293 SC3 cells without doxycycline (CellTiter-Glo, 72 hours); format: cell-based; settings: T-Rex 293 cell line SC3 cells not exposed to doxycycline (lacking increased androgen receptor expression)
Procedure, shortened: as §1

GI50 (VCaP cells; Homo sapiens, VCaP, 72 h) [nM] | GI50 (VCaP cells) [nM] | SMILES | GI50 ([1]; 72 h) [nM] | GI50 ([2]; 72 h) [nM] | GI50 [2] [nM] | GI50 [1] [nM]
< 500 | – | Cc1sc2c(c1C)C(c1ccc(OCC3CC4(CCCN(c5ccc(C(=O)N[C@H]6CC[C@H](Oc7ccc(C#N)c(Cl)c7)CC6)nn5)C4)C3)nc1)=NC1(CC1)c1nnc(C)n1-2 (stereo partly drawn) [I-486] | < 500 | > 3000 | – | –
1500 to 3000 | – | Cc1sc2c(c1C)C(c1ccc(CC3CCC4(C3)CN(c3ccc(C(=O)N[C@H]5CC[C@H](Oc6ccc(C#N)c(Cl)c6)CC5)nn3)CCO4)cc1)=NC1(CC1)c1nnc(C)n1-2 (stereo partly drawn) [I-527] | < 500 | > 3000 | – | –
– | < 500 | Cc1sc2c(c1C)C(c1ccc(OCC3CC4(CCCN(c5ccc(C(=O)N[C@H]6CC[C@H](Oc7ccc(C#N)c(Cl)c7)CC6)nn5)C4)C3)cc1)=NCc1nnc(C)n1-2 (stereo partly drawn) [I-475] | < 500 | – | > 3000 | –
– | < 500 | Cc1sc2c(c1C)C(c1ccc(OCC3CCC4(C3)CN(c3ccc(C(=O)N[C@H]5CC[C@H](Oc6ccc(C#N)c(Cl)c6)CC5)nn3)CCO4)cc1)=N[C@@H](C)c1nnc(C)n1-2 (stereo partly drawn) [I-667] | < 500 | – | < 500 | –
1500 to 3000 | – | Cc1sc2c(c1C)C(c1ccc(N3CCC4(CC3)CCN(c3ccc(C(=O)N[C@H]5CC[C@H](Oc6ccc(C#N)c(Cl)c6)CC5)nn3)C4)nc1)=NC1(CC1)c1nnc(C)n1-2 [I-477] | < 500 | 500 to 1500 | – | –
< 500 | – | Cc1sc2c(c1C)C(c1ccc(N[C@H]3CC[C@H](CNc4ncc(C(=O)N[C@H]5CC[C@H](Oc6ccc(C#N)c(Cl)c6)CC5)cn4)CC3)cc1)=NC(Cc1ncco1)c1nnc(C)n1-2 (stereo partly drawn) [I-796] | < 500 | < 500 | – | –
< 500 | – | Cc1sc2c(c1C)C(c1ccc(N3CCC(CC4CCN(c5ccc(C(=O)N[C@H]6CC[C@H](Oc7ccc(C#N)c(Cl)c7)CC6)nn5)CC4)CC3)cc1)=NC1(CC1)c1nnc(C)n1-2 [I-492] | < 500 | > 3000 | – | –
– | < 500 | Cc1sc2c(c1C)C(c1ccc(N3CCC4(CC3)CCN(c3ccc(C(=O)N[C@H]5CC[C@H](Oc6ccc(C#N)c(Cl)c6)CC5)nn3)C4)cc1F)=N[C@@H](C)c1nnc(C)n1-2 [I-767] | – | – | < 500 | < 500
< 500 | – | Cc1sc2c(c1C)C(c1ccc(C3CCC4(CCCN(c5ccc(C(=O)N[C@H]6CC[C@H](Oc7ccc(C#N)c(Cl)c7)CC6)nn5)C4)CC3)cc1)=N[C@@H](C)c1nnc(C)n1-2 (stereo partly drawn) [I-673] | < 500 | > 3000 | – | –
< 500 | – | Cc1sc2c(c1C)C(c1cccc(OC3CCN(c4ccc(C(=O)N[C@H]5CC[C@H](Oc6ccc(C#N)c(Cl)c6)CC5)nn4)CC3)c1)=N[C@@H](C)c1nnc(C)n1-2 [I-680] | < 500 | > 3000 | – | –
< 500 | – | Cc1sc2c(c1C)C(c1ccc(CC3CC(CC4CCN(c5ccc(C(=O)N[C@H]6CC[C@H](Oc7ccc(C#N)c(Cl)c7)CC6)nn5)CC4)C3)cc1)=N[C@@H](C)c1nnc(C)n1-2 (stereo partly drawn) [I-628] | < 500 | > 3000 | – | –
– | < 500 | Cc1sc2c(c1C)C(c1ccc(N3CC(CC4CCCN(c5ccc(C(=O)N[C@H]6CC[C@H](Oc7ccc(C#N)c(Cl)c7)CC6)nn5)C4)C3)cc1)=NC1(CC1)c1nnc(C)n1-2 (stereo partly drawn) [I-598] | < 500 | – | < 500 | –

Continued, molecule first:

SMILES | GI50 (VCaP cells; Homo sapiens, VCaP, 72 h) [nM] | GI50 (VCaP cells) [nM] | GI50 ([1]; 72 h) [nM] | GI50 ([2]; 72 h) [nM] | GI50 [2] [nM] | GI50 [1] [nM]
Cc1sc2c(c1C)C(c1ccc(NC3CCCN(c4ncc(C(=O)N[C@H]5CC[C@H](Oc6ccc(C#N)c(Cl)c6)CC5)cn4)CC3)cc1)=NC(Cc1ncco1)c1nnc(C)n1-2 (stereo partly drawn) [I-789] | < 500 | – | < 500 | < 500 | – | –
Cc1sc2c(c1C)C(c1ccc(C#CC3CC4(C3)CN(c3ccc(C(=O)N[C@H]5CC[C@H](Oc6ccc(C#N)c(Cl)c6)CC5)nn3)C4)cc1F)=NC(Cc1ncco1)c1nnc(C)n1-2 (mixture of isomers) [I-828, N-[4-(3-chloro-4-cyano-phenoxy)cyclohexyl]-6-[6-[2-[3-fluoro-4-[4,5,13-trimethyl-9-(oxazol-2-ylmethyl)-3-thia-1,8,11,12-tetrazatricyclo[8.3.0.02,6]trideca-2(6),4,7,10,12-pentaen-7-yl]phenyl]ethynyl]-2-azaspiro[3.3]heptan-2-yl]pyridazine-3-carboxamide] | < 500 | – | < 500 | < 500 | – | –
COC[C@@H]1N=C(c2ccc(C3CCC4(CCN(c5ccc(C(=O)N[C@H]6CC[C@H](Oc7ccc(C#N)c(Cl)c7)CC6)nn5)CC4)C3)cc2)c2c(sc(C)c2C)-n2c(C)nnc21 (stereo partly drawn) [I-658] | < 500 | – | < 500 | < 500 | – | –
Cc1sc2c(c1C)C(c1ccc(OCC3CCC4(C3)CN(c3ccc(C(=O)N[C@H]5CC[C@H](Oc6ccc(C#N)c(Cl)c6)CC5)nn3)CCO4)cc1)=N[C@@H](C)c1nnc(C)n1-2 (stereo partly drawn) [I-668] | – | < 500 | – | – | < 500 | < 500
Cc1sc2c(c1C)C(c1ccc(C3CCC4(CCN(c5ccc(C(=O)N[C@H]6CC[C@H](Oc7ccc(C#N)c(Cl)c7)CC6)nn5)CC4)C3)cc1)=NC1(CC1)c1nnc(C)n1-2 (stereo partly drawn) [I-519] | < 500 | – | < 500 | > 3000 | – | –
Cc1sc2c(c1C)C(c1ccc(N3CCC4(CCN(c5ccc(C(=O)N[C@H]6CC[C@H](Oc7ccc(C#N)c(Cl)c7)CC6)nn5)C4)C3)cc1)=NC1(CC1)c1nnc(C)n1-2 (stereo partly drawn) [I-522] | – | 500 to 1500 | – | – | < 500 | < 500
Cc1sc2c(c1C)C(c1ccc(C3CCC4(CCN(c5ccc(C(=O)N[C@H]6CC[C@H](Oc7ccc(C#N)c(Cl)c7)CC6)nn5)CC4)C3)nc1)=N[C@@H](C)c1nnc(C)n1-2 (stereo partly drawn) [I-575] | – | > 3000 | – | < 500 | – | < 500
Cc1sc2c(c1C)C(c1ccc(N3CCC4(CCCN(c5ccc(C(=O)N[C@H]6CC[C@H](Oc7ccc(C#N)c(Cl)c7)CC6)nn5)C4)CC3)cn1)=NC1(CC1)c1nnc(C)n1-2 [I-501] | < 500 | – | < 500 | > 3000 | – | –
Cc1sc2c(c1C)C(c1ccccc1CC1CC3(CCN(c4ccc(C(=O)NC5CCC(Oc6ccc(C#N)c(Cl)c6)CC5)nn4)CC3)C1)=N[C@@H](C)c1nnc(C)n1-2 (stereo partly drawn) [I-690] | < 500 | – | > 3000 | > 3000 | – | –
Cc1sc2c(c1C)C(c1ccc(COC3CCC4(C3)CN(c3ccc(C(=O)N[C@H]5CC[C@H](Oc6ccc(C#N)c(Cl)c6)CC5)nn3)CCO4)cc1)=N[C@@H](C)c1nnc(C)n1-2 (stereo partly drawn) [I-559] | – | < 500 | – | – | < 500 | < 500
Cc1sc2c(c1C)C(c1ccc(OCC3CCC4(C3)CN(c3ccc(C(=O)N[C@H]5CC[C@H](Oc6ccc(C#N)c(Cl)c6)CC5)nn3)CCO4)cc1)=N[C@@H](C)c1nnc(C)n1-2 (stereo partly drawn) [I-638] | – | 1500 to 3000 | – | – | < 500 | < 500
Cc1sc2c(c1C)C(c1ccc(N3CCC4(CC3)CC(Cc3ccc(C(=O)N[C@H]5CC[C@H](Oc6ccc(C#N)c(Cl)c6)CC5)nn3)C4)cc1)=N[C@@H](C)c1nnc(C)n1-2 [I-605] | < 500 | – | < 500 | > 3000 | – | –
Cc1sc2c(c1C)C(c1ccccc1OC1CC3(CCN(c4ccc(C(=O)N[C@H]5CC[C@H](Oc6ccc(C#N)c(Cl)c6)CC5)nn4)CC3)C1)=N[C@@H](C)c1nnc(C)n1-2 [I-651] | < 500 | – | > 3000 | > 3000 | – | –
